Activity calls are given as the source filed them. The rule behind the calls is not given here.

Results on one compound are retold here after ChEMBL document CHEMBL3758174, “Discovery and Characterization of 2-Acylaminoimidazole Microsomal Prostaglandin E Synthase-1 Inhibitors” (J Med Chem, 2016).

The nature of data set [1]: Volume of distribution at steady state in beagle dog at 2 mg/kg,po or 0.5 mg/kg, iv after 0.25 to 24 hrs by LC-MS/MS analysis. It is filed as ADME, organism-based, Canis lupus familiaris. To be noted: in vivo, read-out: Vdss.
The target of data set [2] is CYP3A4 (Homo sapiens, UniProt P08684). Description: Time-dependent inhibition of microsomal CYP3A4 (unknown origin) using midazolam as substrate assessed as alpha-hydroxymidazolam-d4 at 10 uM pre-incubated for 12 mins before NADPH addition formation after 30 mins by LC-MS/MS analysis. It is filed as ADME. To be noted: microsomes, probe midazolam.
Data set [3] addresses T1, Prostaglandin E synthase (Homo sapiens, UniProt O14684).
T1 sequence (O14684 whole entry): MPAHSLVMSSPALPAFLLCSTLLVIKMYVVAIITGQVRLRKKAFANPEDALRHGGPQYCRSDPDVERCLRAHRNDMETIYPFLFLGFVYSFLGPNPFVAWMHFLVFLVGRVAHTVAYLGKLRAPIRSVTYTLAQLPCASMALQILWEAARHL
The data set can be described thus: Inhibition of human microsomal PGES1 expressed in 293E cells by LC/MS/MS analysis. It is filed as cell-based.

A short description of data set [4]: Tmax in beagle dog at 2 mg/kg,po after 0.25 to 24 hrs by LC-MS/MS analysis. It is filed as ADME, organism-based, Canis lupus familiaris. To be noted: in vivo.
The target in data set [5] is T2, Cyclooxygenase (Homo sapiens) (UniProt P35354+P23219). Description: Inhibition of COX in human whole blood assessed as decrease in TXB2 production up to 30 uM. The data set is classed as tissue-based.
Data set [6] in a line: Clearance in beagle dog at 2 mg/kg,po or 0.5 mg/kg, iv after 0.25 to 24 hrs by LC-MS/MS analysis. It is filed as ADME, organism-based, Canis lupus familiaris. To be noted: in vivo.
For data set [7], the target named is T1, Prostaglandin E synthase. Description: Inhibition of mPGES1 in rhIL-1beta-stimulated human A549 cells assessed as PGE2 level treated for 18 hrs after 30 mins pre-incubation with rhIL-1beta by EIA method. It is filed as cell-based.
The nature of data set [8]: Oral bioavailability in beagle dog at 2 mg/kg after 0.25 to 24 hrs by LC-MS/MS analysis. It is filed as ADME, organism-based, Canis lupus familiaris. Particulars: in vivo.
Data set [9] has as its target T2, Cyclooxygenase (Homo sapiens). Description: Inhibition of COX in human A549 cells assessed as reduction in PGE2 production at 10 uM. It is filed as cell-based.
The target of data set [10] is T1, Prostaglandin E synthase. The data set can be described thus: (§1) Inhibition of mPGES1 in LPS-induced human whole blood assessed as suppression of PGE2 response after 20 to 24 hrs by LC-MS/MS analysis. The data set is classed as tissue-based.
Data set [11] addresses T3, Prostaglandin E synthase (Homo sapiens) (UniProt O14684).
T3 sequence (whole entry): T1 sequence (O14684 whole entry)
The data set is described as §1. The data set is classed as tissue-based.

Chain of CYP3A4 (P08684 whole entry): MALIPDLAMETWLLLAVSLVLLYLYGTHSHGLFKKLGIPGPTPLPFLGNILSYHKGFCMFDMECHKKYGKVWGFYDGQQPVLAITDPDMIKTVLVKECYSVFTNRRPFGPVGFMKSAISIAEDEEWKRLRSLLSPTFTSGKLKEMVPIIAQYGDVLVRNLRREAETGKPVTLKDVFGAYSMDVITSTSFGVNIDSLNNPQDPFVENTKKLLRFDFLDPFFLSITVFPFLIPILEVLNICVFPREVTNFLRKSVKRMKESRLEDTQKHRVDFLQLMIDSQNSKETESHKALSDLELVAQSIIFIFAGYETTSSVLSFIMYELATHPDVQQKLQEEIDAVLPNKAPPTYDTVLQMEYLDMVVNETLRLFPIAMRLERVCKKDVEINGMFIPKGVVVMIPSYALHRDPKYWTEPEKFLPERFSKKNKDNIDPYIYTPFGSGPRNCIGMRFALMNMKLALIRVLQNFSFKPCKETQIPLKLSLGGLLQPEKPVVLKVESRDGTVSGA
T2 sequence (P23219 whole entry, looked up): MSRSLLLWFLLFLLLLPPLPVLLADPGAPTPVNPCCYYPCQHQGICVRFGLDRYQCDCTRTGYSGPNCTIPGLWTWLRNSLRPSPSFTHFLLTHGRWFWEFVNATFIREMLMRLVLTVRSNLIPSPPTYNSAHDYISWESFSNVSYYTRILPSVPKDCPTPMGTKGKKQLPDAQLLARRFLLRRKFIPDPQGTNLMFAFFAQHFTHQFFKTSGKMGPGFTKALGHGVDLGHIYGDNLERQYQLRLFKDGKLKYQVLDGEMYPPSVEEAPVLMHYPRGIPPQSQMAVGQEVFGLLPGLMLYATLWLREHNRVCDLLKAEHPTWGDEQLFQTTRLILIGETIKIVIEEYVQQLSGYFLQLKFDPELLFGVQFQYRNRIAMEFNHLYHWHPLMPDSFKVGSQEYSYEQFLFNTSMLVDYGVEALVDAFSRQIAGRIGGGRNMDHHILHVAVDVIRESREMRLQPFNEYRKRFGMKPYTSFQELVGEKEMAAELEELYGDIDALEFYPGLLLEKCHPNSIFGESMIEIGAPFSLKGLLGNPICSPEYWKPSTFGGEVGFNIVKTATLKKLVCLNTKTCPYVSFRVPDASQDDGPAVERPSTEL
T2 sequence (P35354 whole entry, looked up): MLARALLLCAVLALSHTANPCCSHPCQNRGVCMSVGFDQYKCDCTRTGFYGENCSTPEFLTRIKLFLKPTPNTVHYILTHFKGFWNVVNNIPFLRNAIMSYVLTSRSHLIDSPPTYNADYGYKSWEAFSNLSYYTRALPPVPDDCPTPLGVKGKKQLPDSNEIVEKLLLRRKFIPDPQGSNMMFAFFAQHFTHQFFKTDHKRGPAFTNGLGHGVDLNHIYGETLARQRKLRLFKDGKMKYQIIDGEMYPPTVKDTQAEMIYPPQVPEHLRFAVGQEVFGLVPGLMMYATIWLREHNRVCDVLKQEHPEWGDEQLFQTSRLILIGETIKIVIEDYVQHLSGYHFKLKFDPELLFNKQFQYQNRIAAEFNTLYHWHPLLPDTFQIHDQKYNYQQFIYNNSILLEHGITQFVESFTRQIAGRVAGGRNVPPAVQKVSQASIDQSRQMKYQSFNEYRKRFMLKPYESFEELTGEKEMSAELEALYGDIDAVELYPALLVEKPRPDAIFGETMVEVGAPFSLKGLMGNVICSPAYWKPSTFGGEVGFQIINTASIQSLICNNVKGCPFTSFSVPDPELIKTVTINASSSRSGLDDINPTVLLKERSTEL

Regarding `CC(C)C(=O)NCc1ccc(C(F)F)c(C(=O)Nc2ncc[nH]2)c1`, in [1], the Vd came to 2.27 L/kg. For the same compound, in data set [2], the inhibition at 0.5 h, 10 µM stood at 20%. Also, the values for the IC50 in data set [3], in data set [7] and in [10] were 2.46 µM, 3.15 µM and 4.61 µM, respectively. The Tmax in [4] was 15 min. Further, the inhibition entry in [5] and in [9] was “inactive” throughout. The clearance in data set [6] was 26.1 mL/min/kg. The compound further showed a bioavailability in data set [8] of 100%. Besides, the IC80 in data set [11] was 31 µM.
